Experimental findings from patent US20170253601A1, “Substituted Pyrrolidine Compounds” (EPIZYME, INC., priority 2014, published 2017) are described below.

The term IC50 denotes the point on the concentration scale where inhibition reaches its midpoint.

In one assay the target is T1, SMYD2 (Homo sapiens, UniProt Q9NRG4).
T1 construct: Full length SMYD2 (NP 064582.2) was cloned; His6 (N, cleaved yes); FLAG (N); made in house; host or cells: Sf9 insect cells
T1 sequence (Q9NRG4 whole entry): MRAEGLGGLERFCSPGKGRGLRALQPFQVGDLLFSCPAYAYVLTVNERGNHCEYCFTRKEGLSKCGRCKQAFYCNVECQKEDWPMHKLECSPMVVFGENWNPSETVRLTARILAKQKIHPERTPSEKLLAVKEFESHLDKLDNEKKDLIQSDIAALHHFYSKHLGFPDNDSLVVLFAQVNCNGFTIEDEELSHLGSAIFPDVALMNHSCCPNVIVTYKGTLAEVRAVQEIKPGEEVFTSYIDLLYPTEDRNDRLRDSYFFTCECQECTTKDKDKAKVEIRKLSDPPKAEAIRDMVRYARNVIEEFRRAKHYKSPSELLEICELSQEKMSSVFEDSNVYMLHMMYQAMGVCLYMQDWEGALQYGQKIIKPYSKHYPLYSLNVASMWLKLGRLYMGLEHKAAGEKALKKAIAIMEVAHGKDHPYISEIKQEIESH
Nature of the assay: SMYD2 Biochemical Assay (3H-SAM, biotinylated peptide substrate, Flashplate). Conditions: IC50 values are an average of n = 1 to n = 50; read-out: SMYD2 Biochem IC50 (μM)*. In a few lines:
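Methyltransferase activity tracked as 3H transfer from 10 nM 3H-SAM to 60 nM biotinylated peptide, counted after streptavidin Flashplate capture and normalised to DMSO and 1000 uM SAH controls. Enzyme: 1.5 nM full-length Sf9-expressed SMYD2, 30 min compound pre-incubation at room temperature, in Bicine pH 7.6 buffer with 2% DMSO; reactions quenched with 600 uM unlabelled SAM; IC50 from 3- or 4-parameter fit.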
With `CC(C)c1cc(C(=O)N[C@H]2C[C@@H](CNC(=O)C3CCCCC3)N(C3CC3)C2)no1` (racemic) [compound 224, (±)-cis-N-[5-[(cyclohexyl-formamido)methyl]-1-cyclopropylpyrrolidin-3-yl]-5-(propan-2-yl)-1,2-oxazole-3-carboxamide], the IC50 is greater than 50 µM.
Turning to `C[C@H]1CN(Cc2cc([N+](=O)[O-])ccc2F)C[C@H]1NC(=O)c1cc(C2CC2)on1` (racemic) [compound 282, (±)-cis-5-cyclopropyl-N-{1-[(2-fluoro-5-nitrophenyl)methyl]-4-methylpyrrolidin-3-yl}-1,2-oxazole-3-carboxamide], the IC50 was found to be 26.7 µM.
As for `C[C@@H]1CN(CC2CCCOC2)C[C@H]1NC(=O)c1cc(C2CC2)on1` (mixture of isomers) [compound 127, (±)-trans-5-cyclopropyl-N-[4-methyl-1-(oxan-3-ylmethyl)pyrrolidin-3-yl]-1,2-oxazole-3-carboxamide], the IC50 was greater than 50 µM.
On the same count and under the same terms, next, `C[C@@H]1CN(Cc2ccc(-c3cc(Cl)ccc3Cl)o2)C[C@H]1NC(=O)c1cc(C2CC2)on1` (racemic) [compound 171, (±)-trans-5-cyclopropyl-N-[1-{[5-(2,5-dichlorophenyl)furan-2-yl]methyl}-4-methylpyrrolidin-3-yl]-1,2-oxazole-3-carboxamide]: greater than 50 µM; `CNC(=O)CN1C[C@H](C)[C@H](NC(=O)c2cc(C3CC3)on2)C1` (racemic) [compound 287, (±)-cis-5-cyclopropyl-N-{4-methyl-1-[(methyl-carbamoyl)methyl]pyrrolidin-3-yl}-1,2-oxazole-3-carboxamide]: greater than 50 µM; `C[C@H]1CN(Cc2c[nH]c(-c3ccccc3)n2)C[C@H]1NC(=O)c1cc(C2CC2)on1` (racemic) [compound 288, (±)-cis-5-cyclopropyl-N-{4-methyl-1-[(2-phenyl-1H-imidazol-4-yl)methyl]pyrrolidin-3-yl}-1,2-oxazole-3-carboxamide]: 21.1 µM.
For the molecule `C[C@H]1CN(CC2CCC2)C[C@H]1NC(=O)c1cc(C2CC2)on1` (racemic) [compound 202, (±)-cis-N-[1-(cyclobutyl-methyl)-4-methyl-pyrrolidin-3-yl]-5-cyclopropyl-1,2-oxazole-3-carboxamide], the IC50 came out at 1.63 µM.
Still for that read-out and setting: next, `COc1ncc(CN2C[C@H](C)[C@H](NC(=O)c3cc(C4CC4)on3)C2)cc1Br` (racemic) [compound 284, (±)-cis-N-{1-[(5-bromo-6-methoxypyridin-3-yl)methyl]-4-methyl-pyrrolidin-3-yl}-5-cyclopropyl-1,2-oxazole-3-carboxamide]: 40.5 µM; `CC(C)N1C[C@H](NC(=O)c2cc(C3CC3)on2)[C@@](C)(O)C1` [compound 246, 5-cyclopropyl-N-[(3S,4S)-4-hydroxy-4-methyl-1-(propan-2-yl)pyrrolidin-3-yl]-1,2-oxazole-3-carboxamide]: greater than 50 µM.
Still for that read-out and setting: next, `C[C@H]1CN(Cc2c[nH]cn2)C[C@H]1NC(=O)c1cc(C2CC2)on1` (racemic) [compound 328, (±)-cis-5-cyclopropyl-N-[1-(1H-imidazol-4-ylmethyl)-4-methyl-pyrrolidin-3-yl]-1,2-oxazole-3-carboxamide]: 2.65 µM; `CC(=O)Nc1ccc(N2C[C@H](C)[C@H](NC(=O)c3cc(C4CC4)on3)C2)cc1` (racemic) [compound 278, (±)-cis-5-cyclopropyl-N-[1-(4-acetamido-phenyl)-4-methylpyrrolidin-3-yl]-1,2-oxazole-3-carboxamide]: greater than 50 µM.
The same measure, in the same setting: then `C[C@H]1CN(Cc2ccsc2)C[C@H]1NC(=O)c1cc(C2CC2)on1` (racemic) [compound 283, (±)-cis-5-cyclopropyl-N-[4-methyl-1-(thiophen-3-ylmethyl)pyrrolidin-3-yl]-1,2-oxazole-3-carboxamide], with 1.85 µM.
With `C[C@H]1CN(Cc2c[nH]c3cc(Cl)ccc23)C[C@H]1NC(=O)c1cc(C2CC2)on1` (racemic) [compound 324, (±)-cis-N-{1-[(6-chloro-1H-indol-3-yl)methyl]-4-methylpyrrolidin-3-yl}-5-cyclopropyl-1,2-oxazole-3-carboxamide], the half-inhibitory concentration (IC50) was 9.34 µM.
Still for that read-out and setting: then `COc1cccc(CN2C[C@H](C)[C@H](NC(=O)c3cc(C4CC4)on3)C2)c1OC` (racemic) [compound 233, (±)-cis-5-cyclopropyl-N-[1-[(2,3-dimethoxy-phenyl)methyl]-4-methylpyrrolidin-3-yl]-1,2-oxazole-3-carboxamide], with 2.27 µM.
On the same count and under the same terms, then `Cc1nn(C)cc1CN1C[C@H](C)[C@H](NC(=O)c2cc(C3CC3)on2)C1` (racemic) [compound 326, (±)-cis-5-cyclopropyl-N-{1-[(1,3-dimethyl-1H-pyrazol-4-yl)methyl]-4-methylpyrrolidin-3-yl}-1,2-oxazole-3-carboxamide], with 1.67 µM; and `C[C@H]1CN(Cc2nccn2C)C[C@H]1NC(=O)c1cc(C2CC2)on1` (racemic) [compound 305, (±)-cis-5-cyclopropyl-N-{4-methyl-1-[(1-methyl-1H-imidazol-2-yl)methyl]pyrrolidin-3-yl}-1,2-oxazole-3-carboxamide], with 41.1 µM; and `CO[C@H]1CN(C)C[C@@H]1NC(=O)c1cc(C2CC2)on1` (racemic) [compound 122, (±)-trans-5-cyclopropyl-N-(4-methoxy-1-methylpyrrolidin-3-yl)-1,2-oxazole-3-carboxamide], with greater than 50 µM.
On the same count and under the same terms, then `C[C@@H]1CN(CC(F)(F)F)C[C@H]1NC(=O)c1cc(C2CC2)on1` (racemic) [compound 261, (±)-trans-5-cyclopropyl-N-[4-methyl-1-(2,2,2-trifluoroethyl)pyrrolidin-3-yl]-1,2-oxazole-3-carboxamide], with greater than 50 µM; and `CC[C@H]1CN(C(C)C)C[C@@H]1NC(=O)c1cc(C2CC2)on1` (racemic) [compound 199, (±)-trans-5-cyclopropyl-N-[4-ethyl-1-(propan-2-yl)pyrrolidin-3-yl]-1,2-oxazole-3-carboxamide], with 25.7 µM; and `C[C@@H]1CN(CC(N)=O)C[C@H]1NC(=O)c1cc(C2CC2)on1` (racemic) [compound 310, (±)-trans-N-[1-(carbamoylmethyl)-4-methylpyrrolidin-3-yl]-5-cyclopropyl-1,2-oxazole-3-carboxamide], with greater than 50 µM.
Consider `CC(C)N1C[C@@H](C)[C@H](NC(=O)c2cc(C3(C)CCC3)on2)C1` (racemic) [compound 259, (±)-trans-N-[4-methyl-1-(propan-2-yl)pyrrolidin-3-yl]-5-(1-methylcyclobutyl)-1,2-oxazole-3-carboxamide], for which the IC50 is greater than 50 µM.
As for `CC(N1C[C@@H](C)[C@H](NC(=O)c2cc(C3CC3)on2)C1)C(F)(F)F` (stereo partly drawn) [compound 247, trans-5-cyclopropyl-N-[(3S,4R)-4-methyl-1-(1,1,1-trifluoropropan-2-yl)pyrrolidin-3-yl]-1,2-oxazole-3-carboxamide], the IC50 was greater than 50 µM.
Still for that read-out and setting: then `CC(C)[C@H]1CN(C)C[C@@H]1NC(=O)c1cc(C2CC2)on1` (racemic) [compound 177, (±)-trans-5-cyclopropyl-N-[1-methyl-4-(propan-2-yl)pyrrolidin-3-yl]-1,2-oxazole-3-carboxamide], with greater than 50 µM; and `C[C@@H]1CN(Cc2ccc(Cl)cc2)C[C@H]1NC(=O)c1cc(C2CC2)on1` (racemic) [compound 140, (±)-trans-N-{1-[(4-chlorophenyl)methyl]-4-methylpyrrolidin-3-yl]-5-cyclopropyl-1,2-oxazole-3-carboxamide], with greater than 50 µM.
With `C[C@H]1CN(CC(=O)N2CCN(C)CC2)C[C@H]1NC(=O)c1cc(C2CC2)on1` (racemic) [compound 263, (±)-cis-5-cyclopropyl-N-[4-methyl-1-[2-(4-methylpiperazin-1-yl)-2-oxoethyl]pyrrolidin-3-yl]-1,2-oxazole-3-carboxamide], the IC50 was greater than 50 µM.

The same assay, now with this note: Table 1; average of n = 1 to n = 50; read-out: SMYD2 Biochem IC50.
With `C[C@H]1CNC[C@H]1NC(=O)c1cc(C2CC2)on1` (racemic) [compound 38, (±)-cis-5-cyclopropyl-N-(4-methylpyrrolidin-3-yl)isoxazole-3-carboxamide], the IC50 came out at 15.4 µM.
Turning to `C[C@H]1CN(C2CC2)C[C@@H]1NC(=O)c1cc(C2CCCC2)on1` (racemic) [compound 53, (±)-trans-5-cyclopentyl-N-(1-cyclopropyl-4-methylpyrrolidin-3-yl)isoxazole-3-carboxamide], the IC50 is greater than 50 µM.

Staying with this assay, now noted: Table 2; average of n = 1 to n = 50; read-out: SMYD2 Biochem IC50.
As to `CC(=O)N1CCC(N2C[C@@H](C)[C@H](NC(=O)c3cc(C4CC4)on3)C2)CC1` (racemic) [compound 106, (±)-trans-N-(1-(1-acetylpiperidin-4-yl)-4-methylpyrrolidin-3-yl)-5-cyclopropylisoxazole-3-carboxamide], the IC50 was greater than 50 µM.
Same read-out and setting: then `CCN1C[C@H](C)[C@H](NC(=O)c2cc(C3CC3)on2)C1` (racemic) [compound 110, (±)-cis-5-cyclopropyl-N-(1-ethyl-4-methylpyrrolidin-3-yl)isoxazole-3-carboxamide], with 3 µM.
On to `C[C@@H]1CN(C(=O)CO)C[C@@H]1NC(=O)c1cc(C2CC2)on1` (racemic) [compound 69, (±)-cis-5-cyclopropyl-N-(1-(2-hydroxyacetyl)-4-methylpyrrolidin-3-yl)isoxazole-3-carboxamide], for which the IC50 is greater than 50 µM.
As for `C[C@@H]1CN(Cc2ccncc2)C[C@H]1NC(=O)c1cc(C2CC2)on1` (racemic) [compound 85, (±)-trans-5-cyclopropyl-N-(4-methyl-1-(pyridin-4-ylmethyl)pyrrolidin-3-yl)isoxazole-3-carboxamide], the IC50 was greater than 50 µM.
